Active and inactive are the calls of the source.
Tests used:
[1] = molecular target: Glucose-6-phosphate 1-dehydrogenase (Homo sapiens, UniProt P11413); test: human G6PD enzyme inhibitors, dose response, selectivity assay for P. falciparum G6PD inhibitor project, biochemical, fluorescence (AID 504792); type: functional
H9c2 = test: cells; type: functional, cell-based; details: Rattus norvegicus, H9c2, Myocardium
[2] = molecular target: 72 kDa type IV collagenase (Homo sapiens, UniProt P08253); test: Dose Response validation of uHTS RPN11 inhibitor hits using a MMP-2 Fluorescence assay.; type: functional
Prothrombin = Prothrombin (Bos taurus, UniProt P00735); test: thrombin inhibition, dose response, biochemical, fluorescence polarization, uHTS hits (AID 602369); type: functional
[3] = molecular target: 26S proteasome non-ATPase regulatory subunit 14 (Homo sapiens, UniProt O00487); test: inhibition of proteasome subunit RPN11 – biochemical, fluorescence polarization, uHTS hits, confirmation (AID 602368); type: functional
[4] = molecular target: T1, Sentrin-specific protease 7 (Homo sapiens, UniProt Q9BQF6); type: functional;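 further: Luminescence-based dose-response confirmation of ultra-high-throughput screening hits, measuring inhibition of SENP7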
T1 sequence (Q9BQF6 whole entry): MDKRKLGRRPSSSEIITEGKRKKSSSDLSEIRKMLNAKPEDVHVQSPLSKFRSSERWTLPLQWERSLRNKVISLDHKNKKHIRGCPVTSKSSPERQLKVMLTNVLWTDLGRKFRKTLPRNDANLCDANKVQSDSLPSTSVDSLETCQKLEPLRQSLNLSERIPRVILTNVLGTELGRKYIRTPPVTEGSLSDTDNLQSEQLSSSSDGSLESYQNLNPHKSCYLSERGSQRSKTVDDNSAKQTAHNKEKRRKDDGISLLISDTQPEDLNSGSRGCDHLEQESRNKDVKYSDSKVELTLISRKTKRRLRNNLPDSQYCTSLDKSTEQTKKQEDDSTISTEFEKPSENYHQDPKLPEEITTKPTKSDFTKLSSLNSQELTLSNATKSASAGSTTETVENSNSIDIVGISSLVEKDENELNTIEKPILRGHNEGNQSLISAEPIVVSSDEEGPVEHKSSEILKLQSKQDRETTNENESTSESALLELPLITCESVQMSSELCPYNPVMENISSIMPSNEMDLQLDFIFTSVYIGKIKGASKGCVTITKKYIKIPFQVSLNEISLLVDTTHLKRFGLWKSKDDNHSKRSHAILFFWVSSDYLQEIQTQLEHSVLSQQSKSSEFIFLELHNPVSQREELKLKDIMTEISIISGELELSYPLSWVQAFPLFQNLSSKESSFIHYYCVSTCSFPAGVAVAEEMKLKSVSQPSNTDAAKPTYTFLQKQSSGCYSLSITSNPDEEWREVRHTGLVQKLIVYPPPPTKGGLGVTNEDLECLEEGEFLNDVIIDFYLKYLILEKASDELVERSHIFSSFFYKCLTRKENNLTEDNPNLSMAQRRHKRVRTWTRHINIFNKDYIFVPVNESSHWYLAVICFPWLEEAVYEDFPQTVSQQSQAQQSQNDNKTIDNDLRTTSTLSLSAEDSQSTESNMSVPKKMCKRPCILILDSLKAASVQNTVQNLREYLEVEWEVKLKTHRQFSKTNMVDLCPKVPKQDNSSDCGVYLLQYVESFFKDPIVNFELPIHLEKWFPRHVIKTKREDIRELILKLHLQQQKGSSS

[5] = molecular target: T2, Sentrin-specific protease 8 (Homo sapiens, UniProt Q96LD8); type: functional;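 further: luminescence read-out of SENP8 inhibition, dose-response confirmation following an ultra-high-throughput screen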
T2 sequence (Q96LD8 whole entry): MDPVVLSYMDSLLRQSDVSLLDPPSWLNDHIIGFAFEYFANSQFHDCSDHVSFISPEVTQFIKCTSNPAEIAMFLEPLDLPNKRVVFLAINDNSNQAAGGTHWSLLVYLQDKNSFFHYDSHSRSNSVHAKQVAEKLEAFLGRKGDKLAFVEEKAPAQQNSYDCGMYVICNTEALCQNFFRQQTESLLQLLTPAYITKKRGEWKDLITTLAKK

[6] = molecular target: T3, Sentrin-specific protease 6 (Homo sapiens, UniProt Q9GZR1); type: functional;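 further: Luminescence-based dose-response confirmatory assay of SENP6 inhibition, following up an ultra-high-throughput screen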
T3 sequence (Q9GZR1 whole entry): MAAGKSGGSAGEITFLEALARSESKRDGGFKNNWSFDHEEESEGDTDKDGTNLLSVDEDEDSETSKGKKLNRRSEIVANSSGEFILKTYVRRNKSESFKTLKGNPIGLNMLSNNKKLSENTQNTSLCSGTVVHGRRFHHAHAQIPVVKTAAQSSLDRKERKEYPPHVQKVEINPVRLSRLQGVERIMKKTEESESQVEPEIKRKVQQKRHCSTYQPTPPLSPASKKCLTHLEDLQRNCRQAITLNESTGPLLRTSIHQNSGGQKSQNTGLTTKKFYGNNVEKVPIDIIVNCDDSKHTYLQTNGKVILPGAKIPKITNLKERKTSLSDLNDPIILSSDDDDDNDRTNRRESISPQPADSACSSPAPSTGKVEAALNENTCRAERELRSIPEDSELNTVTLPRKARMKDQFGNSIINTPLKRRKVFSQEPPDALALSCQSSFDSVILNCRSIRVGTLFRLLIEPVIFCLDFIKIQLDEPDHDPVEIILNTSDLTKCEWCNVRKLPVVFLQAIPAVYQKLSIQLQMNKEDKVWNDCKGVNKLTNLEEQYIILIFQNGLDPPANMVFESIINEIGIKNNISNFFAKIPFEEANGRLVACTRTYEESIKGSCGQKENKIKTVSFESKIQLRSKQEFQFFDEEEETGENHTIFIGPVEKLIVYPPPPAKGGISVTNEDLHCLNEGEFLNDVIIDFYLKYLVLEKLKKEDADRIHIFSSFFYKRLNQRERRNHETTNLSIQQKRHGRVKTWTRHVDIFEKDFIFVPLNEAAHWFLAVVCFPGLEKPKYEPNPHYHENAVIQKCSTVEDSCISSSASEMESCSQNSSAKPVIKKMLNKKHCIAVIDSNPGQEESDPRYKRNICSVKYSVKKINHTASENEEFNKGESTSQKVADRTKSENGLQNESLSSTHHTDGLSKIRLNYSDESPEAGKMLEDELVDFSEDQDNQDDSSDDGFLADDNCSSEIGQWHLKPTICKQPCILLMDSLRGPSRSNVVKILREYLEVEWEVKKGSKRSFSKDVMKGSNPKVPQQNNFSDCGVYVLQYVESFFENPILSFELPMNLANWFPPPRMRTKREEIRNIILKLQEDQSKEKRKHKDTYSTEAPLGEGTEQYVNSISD

cells [7] = type: functional, cell-based
[8] = Luminescence Cell-Based Dose Response HTS to Identify Inhibitors of 5'UTR Stem-Loop Driven Prion Protein mRNA Translation in H4 Neuroglioblastoma Cells. [Related pubchem assays: 1827 (Project Summary), 1813 (Primary HTS)]; type: functional
[9] = Shn3 3'UTR reporter inhibitors, dose response, cell-based, Clone20 osteoblasts, firefly luciferase, cherry-picked (AID 624132); type: functional;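 further: firefly luciferase luminescence from reporter carrying the Shn3 3'UTR in osteoblasts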
Vero = Vero cell cytotoxicity, cytotoxicity control for flavivirus capping enzyme inhibitors (AID 588742); type: functional; details: Chlorocebus sabaeus
[10] = inhibitors of firefly luciferase expression or activity, dose response, H4 neuroglioma cells, luminescence (AID 1990); type: functional, cell-based
[11] = HepG2 cell cytotoxicity, dose response, cytotoxicity control for Shn3 inhibitor project, CellTiter-Glo, cherry-picked (AID 624134); type: functional, cell-based
cells [12] = type: functional, cell-based; remark: listed apart in the source
[13] = inhibitors of SNCA 5'UTR-driven reporter translation, confirmation, H4 neuroglioma cells, luminescence (AID 1988); type: functional, cell-based
[14] = control 3'UTR Renilla luciferase suppression, dose response, counter-screen for Shn3 inhibitor project, cell-based, Clone20-Shn3RL, cherry-picked (AID 624133); type: functional
HEK293 = test: inhibitors of LMP1-driven NF-kB reporter, dose response, cell-based, HEK293, luciferase, cherry-pick (AID 588343); type: functional; details: Homo sapiens

Chain of 26S proteasome non-ATPase regulatory subunit 14 (O00487 whole entry): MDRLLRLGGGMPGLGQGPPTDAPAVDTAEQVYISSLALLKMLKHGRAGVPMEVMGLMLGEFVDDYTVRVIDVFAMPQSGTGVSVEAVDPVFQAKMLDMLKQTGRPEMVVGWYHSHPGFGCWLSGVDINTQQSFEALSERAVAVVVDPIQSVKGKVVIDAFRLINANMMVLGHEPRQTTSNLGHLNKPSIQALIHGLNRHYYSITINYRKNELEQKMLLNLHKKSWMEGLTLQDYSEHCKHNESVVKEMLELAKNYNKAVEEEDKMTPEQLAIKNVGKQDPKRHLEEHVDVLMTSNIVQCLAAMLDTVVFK
Chain of 72 kDa type IV collagenase (P08253 whole entry): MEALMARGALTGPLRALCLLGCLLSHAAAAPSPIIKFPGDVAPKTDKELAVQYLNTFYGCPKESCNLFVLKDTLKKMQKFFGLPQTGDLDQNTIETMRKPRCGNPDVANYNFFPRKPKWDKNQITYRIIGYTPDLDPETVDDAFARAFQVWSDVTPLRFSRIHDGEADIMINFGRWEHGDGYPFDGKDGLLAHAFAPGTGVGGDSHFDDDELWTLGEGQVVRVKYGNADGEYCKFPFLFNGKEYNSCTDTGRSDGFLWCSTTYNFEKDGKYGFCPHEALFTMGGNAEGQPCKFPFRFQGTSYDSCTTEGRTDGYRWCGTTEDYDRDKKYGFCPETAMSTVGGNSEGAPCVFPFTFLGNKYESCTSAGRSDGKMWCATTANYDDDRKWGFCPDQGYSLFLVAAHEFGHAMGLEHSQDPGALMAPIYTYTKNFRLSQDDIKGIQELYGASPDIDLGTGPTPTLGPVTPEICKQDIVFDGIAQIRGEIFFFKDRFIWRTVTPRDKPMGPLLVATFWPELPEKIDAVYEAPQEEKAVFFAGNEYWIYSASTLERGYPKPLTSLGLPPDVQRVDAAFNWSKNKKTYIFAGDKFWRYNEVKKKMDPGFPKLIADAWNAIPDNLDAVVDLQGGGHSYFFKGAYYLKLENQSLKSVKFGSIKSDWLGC
Chain of Glucose-6-phosphate 1-dehydrogenase (P11413 whole entry): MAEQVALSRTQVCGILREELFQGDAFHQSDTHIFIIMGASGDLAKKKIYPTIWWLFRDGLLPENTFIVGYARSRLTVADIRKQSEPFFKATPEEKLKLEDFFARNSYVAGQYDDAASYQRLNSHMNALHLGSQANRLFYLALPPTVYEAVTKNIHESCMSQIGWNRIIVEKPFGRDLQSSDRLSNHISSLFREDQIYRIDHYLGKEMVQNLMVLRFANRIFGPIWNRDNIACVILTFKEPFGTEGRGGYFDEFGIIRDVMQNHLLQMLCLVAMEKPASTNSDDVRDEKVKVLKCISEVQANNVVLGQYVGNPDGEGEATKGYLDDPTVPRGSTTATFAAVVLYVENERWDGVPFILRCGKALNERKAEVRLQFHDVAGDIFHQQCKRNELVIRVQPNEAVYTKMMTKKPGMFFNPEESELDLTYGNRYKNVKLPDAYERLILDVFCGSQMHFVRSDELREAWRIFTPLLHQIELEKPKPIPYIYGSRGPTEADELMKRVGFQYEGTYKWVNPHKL

## CCn1c([N+](=O)[O-])nc2c1c(=O)[nH]c(=O)n2C
[1]
  IC50: > 80 µM (inactive)

## COc1ccccc1NC(=O)COc1ccc(C(=O)OCC(=O)NC(C)(C)C)cc1OC
H9c2
  IC50: > 79 µM (inactive)

## COc1ccc(OC)c(N2C(=O)/C(=C/Nc3c(C)n(C)n(-c4ccccc4)c3=O)C(=O)NC2=S)c1
[2]
  IC50: 38.7 µM (active)
Prothrombin
  IC50: 51.9 µM (active)
[3]
  IC50: 34.7 µM (active)

## CC(=O)Nc1nc(COc2ccc3ccccc3c2)cs1
[4]
  IC50: 5.88 µM (active)
[5]
  IC50: 9.93 µM (active)
[6]
  IC50: 8.61 µM (active)

## COc1ccc(CCn2c(NN=C3CCCC3)nc3c2c(=O)[nH]c(=O)n3C)cc1
[1]
  IC50: > 80 µM (inactive)

## COc1ccc(C(NC(=O)c2cccnc2)c2cc(Cl)c3cccnc3c2O)cc1OC (stereo not given)
Cells [7]
  EC50: > 350 µM (not active)
[8]
  EC50: 0.297 µM (active)
[9]
  AC50: 1.88 µM (active)
Vero
  CC50: 3.92 µM (active)
[10]
  EC50: 13.3 µM (active)
[11]
  AC50: 2.7 µM (active)
Cells [12]
  EC50: 14.2 µM (active)
[13]
  EC50: > 120 µM (not active)
[14]
  AC50: 1.14 µM (active)

## CCOC(=O)Cc1csc(NC(=O)c2sc3nc4ccc(C)cc4cc3c2N)n1
[2]
  IC50: > 100 µM (inactive)
Prothrombin
  IC50: 77.9 µM (active)
[3]
  IC50: 33.9 µM (active)

## CCOc1ccc(NC(=O)c2ccc(N3CC4CC(C3)c3cccc(=O)n3C4)c(NC(=O)c3cccnc3)c2)cc1 (stereo not given)
HEK293
  AC50: > 350 µM (inactive)

## O=C(N/N=C/c1ccc(Cl)cc1Cl)c1ccc2[nH]cnc2c1
[2]
  IC50: > 100 µM (inactive)
Prothrombin
  IC50: 51.7 µM (active)
[3]
  IC50: 20.9 µM (active)
